Measured values as given in patent US20180163180A1, “METHOD OF ENHANCING SOMATIC CELL REPROGRAMMING WITH THE ACETYLLYSINE READER BRD3R” (THE UAB RESEARCH FOUNDATION, INC ., priority 2015, published 2018).

Experiments:
reprogramming cells [1] = experiment: Senescence analysis (SA-β-galactosidase staining) of reprogramming cells; type: cell-based, human; settings: early stages of reprogramming (day 5)
Excerpt: • Senescence analysis: Prepare reprogramming cells as stated in the reprogramming section. At day 5 of reprogramming, stain cells for endogenous p-galactosidase using the Cell Senescence Kit (Cell Signaling Technology, #9860s) per manufacturer's instruction. Count the β-galactosidase^+ cells in 10 randomly selected fields in each treated groups. The total cells were counted based on DAPI staining.

BJ cells = experiment: Quantification of ESC-like (high-quality PSC morphology) colonies in reprogramming; type: cell-based, human; settings: BRD3R reprogramming vs control reprogramming
Excerpt: When combined with the 3F combination (OCT4, SOX2 and KLF4), BRD3R gave rise to abundant TRA-1-60^+ clusters as early as day 6, whereas such clusters were infrequent events before day 10 in the control reprogramming (3F alone and 3F-GFP) (FIGS. 8A and 8E). On day 10, TRA-1-60^+ cells in BRD3R dishes developed into colonies while controls contained only small clusters of TRA-1-60^+ cells (FIG. 8E). The number of high-quality PSC colonies was also compared (well-defined colony border, homogeneous iPSCs within each reprogramming colony, smooth colony surface, and typical morphology of pluripotent cells (small cells, large nucleus, and close cell contact)), BRD3R reprogramming gave rise to at least 57× more colonies with PSC morphology than controls (FIGS. 9A and 9B). In addition, the iPSC colonies generally were larger in BRD3R dishes than in the control dishes (FIG. 1E, and FIGS. 8C, 8E, 9B, and 12C).
• Cell culture and reprogramming: Human fibroblast cells (BJ ATCC CRL-2522®) were cultured in fibroblast medium: DMEM, 10% heat-inactivated FBS, 0.1 mM 2-mercaptoethanol, 100 U/ml penicillin, 100 μg/ml streptomycin, 0.1 mM MEM NEAA and 4 ng/ml human bFGF. For reprogramming, seed BJ cells into 24-well plate at 2×10^4 cells/well. […]

Human fibroblasts = experiment: CyQUANT cell proliferation assay of reprogramming cells; type: cell-based; settings: before day 9 of reprogramming
Description: • Cell proliferation assays: Human fibroblasts were transduced with reprogramming viruses. Forty-eight hs post transduction, the reprogramming cells were plated at 4,000 cells/well of a 96-well plate. Five replicates were performed for each condition. On days 0, 1, 3, 5, 7, 9, 11 and 13, the cells were measured using a CyQUANT® NF Cell Proliferation Assay Kit (Life Technologies; c35007) per manufacturer's instruction.

reprogramming cells [2] = experiment: Cell cycle analysis by flow cytometry of reprogramming cells; type: cell-based, human; settings: day 6 of reprogramming, compared to controls
Description: • Cell Cycle Analysis: Harvest cells by trypsin solution. Fix cell with 70% cold ethanol overnight at 4° C. The next day, wash cells with PBS. Treat cells with 0.2 mg/ml RNase A in PBS containing 0.1% Triton X-100 at 37° C. for 1 h. Add PI at a final concentration of 10 μg/ml. Keep the cells in dark and at 4° C. until analysis. Analyze on BD LSRFortessa. Percentage of cells at each cell cycle phases was determined with Watson (pragmatic) (Watson et al., (1987) Cytometry 8: 1-8) and Dean-Jett-Fox (Fox M. H. (1980) Cytometry 1: 71-77) models on FlowJow.

With “BRD3R: BRD3 with Reprogramming activity; 556 aa isoform of human BRD3 (AAH32124, SEQ ID NO: 47), encoded by cDNA L61” the “cell senescence (SA-β-galactosidase staining)” value (reprogramming cells [1]) was “Reduced cell senescence”, the “more colonies with PSC morphology than controls” value (BJ cells) was “at least 57 ×” and the “overall proliferation rate vs control cells” value (Human fibroblasts) was “comparable overall proliferation rates”. For the same substance, the “number of cells in G1” value (reprogramming cells [2]) was “statistically reduced” and the “population of cells in G2/M phases” value (reprogramming cells [2]) was “statistically increased”.
